The text below walks through data of paper PMC8729174 (RSC Chemical Biology, 2021).

The IC50 is the concentration that inhibits the measured activity by half. As usually defined, the Kd is the concentration at which binding is half-saturated.

Assay [1] relates to Ar42J cells. The assay is described as follows: Cell death kinetics. Format: cell-based, rat. The conditions noted are these: MTS, n = 3, 6 at 60 nM, α-amanitin 1 at 10 μM.
Assay [2] deals with sstr2-negative CHO cell line. The following applies: read-out: IC50 on CHO cells; cited from earlier work.
Assay [3] has as its target sstr2. The following applies: read-out: Kd for sstr2; cited from earlier work.

With α-amanitin [compound 1], in assay [1] (24 h), the “cell viability after 24 hours of incubation (in words)” value is recorded as “remained fully viable”. Besides, the “cell viability after 48 hours of incubation (in words)” value in assay [1] (48 h) was “loss of cell viability was only observed after 48 hours”. Moreover, the IC50 in assay [2] was 300 to 700 nM. Take “N-propargyl-dideoxy-amanitin [compound 4]”: the IC50 in assay [2] was 1000 to 2000 nM. Turning to octreotate [compound 2], the Kd in assay [3] was approximately 0.4 nM.
